Consider 9 compounds from US20160033699A1, “POLARIZING PLATE” (NITTO DENKO CORPORATION, priority 2014, published 2016).

In general, logP refers to the decadic logarithm of the partition coefficient of the neutral form, usually between octanol and water. A high value points to higher lipophilicity. As usually defined, the log P is a log measure of how a compound divides between an organic and an aqueous phase.

A short description of the first series: log P value (octanol/water partition coefficient).
Conditions: not given
The compound `CSc1ccc(C(=O)C(C)(C)N2CCOCC2)cc1` [IRGACURE 907, 2-methyl-1-(4-methylthiophenyl)-2-morpholinopropan-1-one] gave a logP of 2.09.

Staying with this series, now noted: octanol/water.
The compound `C=CC(=O)OCCCCCCCCCCOC(=O)C=C` [1,10-decanediol diacrylate] showed a logP of 4.1.

The series is the same for the next values; noted with them: octanol/water partition coefficient.
With `CCc1cc(CC)c2sc3ccccc3c(=O)c2c1` [KAYACURE DETX-S, diethylthioxanthone], the “log P” value is 5.12.
As to bisphenol A di(meth)acrylate, the “log P” value is on record as 5.46.
On to “bisphenol A-propylene oxide (2 mole) adduct di(meth)acrylate”, for which the “log P” value amounted to 6.10.
Turning to “bisphenol A-propylene oxide (4 mole) adduct di(meth)acrylate”, the “log P” value was found to be 6.43.
As to “neopentyl glycol hydroxypivalate-(meth)acrylic acid adduct”, the “log P” value was determined as 3.35.
On to p-phenylphenol (meth)acrylate, for which the “log P” value is 3.98.
For the compound “tricyclodecanedimethanol diacrylate [LIGHT ACRYLATE DCP-A]”, the “log P” value came to 3.05.
